Experimental data taken from patent US12570662B2, “Substituted pyrrolo[1,2-b]pyridazines as bifunctional degraders of interleukin-1 receptor-associated kinases” (Nurix Therapeutics, Inc., priority 2021, dated 2026).

Biological target: T1, IRAK4 (Homo sapiens, UniProt Q9NWZ3)
T1 construct: C-terminal HiBiT-tagged Jurkat cells (polyclonal cell line or clone 8D5); endogenous in cells; host or cells: Jurkat cells (polyclonal cell line or clone 8D5), HiBiT-tagged
T1 sequence (Q9NWZ3 1-460): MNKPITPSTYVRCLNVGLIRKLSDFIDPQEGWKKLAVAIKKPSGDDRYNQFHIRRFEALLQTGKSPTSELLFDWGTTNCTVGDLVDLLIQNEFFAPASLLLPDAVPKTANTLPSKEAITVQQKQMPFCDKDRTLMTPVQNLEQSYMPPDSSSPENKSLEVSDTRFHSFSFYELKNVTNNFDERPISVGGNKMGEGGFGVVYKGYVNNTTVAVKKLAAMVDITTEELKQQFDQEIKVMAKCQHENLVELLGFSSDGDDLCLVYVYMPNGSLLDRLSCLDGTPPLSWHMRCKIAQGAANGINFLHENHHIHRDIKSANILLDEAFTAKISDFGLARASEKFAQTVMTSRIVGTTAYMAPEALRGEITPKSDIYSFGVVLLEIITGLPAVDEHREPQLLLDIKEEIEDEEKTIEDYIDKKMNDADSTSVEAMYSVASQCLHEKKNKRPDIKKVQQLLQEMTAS
Test: IRAK4 Degradation HiBit Assay
Type: cell-based
Details: C-terminal HiBiT-tagged Jurkat cells, 4 hrs incubation; for DC50: % IRAK4 remaining, four-parameter fit (IC50 used as DC50); for Dmax: from fit of % IRAK4 remaining, read-out: Dmax
Description: Compound dilution series (11-point, 3.16-fold dilutions in DMSO, columns 1-11 and 12-22) at 500× the final required concentrations were prepared in Labcyte LDV 384-well plates (cat. no. LP-0200) using a Labcyte Echo 550 Liquid Handler. The 500× solutions ranged from 5 mM to 0.5 μM (final assay concentration range 10 μM to 0.1 nM). Using the Echo, the 500× solutions were stamped into white, 384-well assay plates (Corning, cat. no. 3570) at 60 nL/well. The following assay plate controls were also stamped at 60 nL/well: DMSO in wells E23-P23 (NC, Negative Control, maximum signal), 5 mM solution control compound al in wells A23-D23 and M24-P24 (AC, Active Control, minimum signal/background, 10 μM final assay concentration), control compound al dilution series in wells […] (12-point, 4-fold dilutions). C-terminal HiBiT-tagged Jurkat cells (polyclonal cell line or clone 8D5) were plated at 1×10^6 cells/mL, 30 μL/well (3×10^4 cells/well) in complete RPMI (10% FBS, 1% L-glutamine). Cells were incubated for 4 hrs at 32° C./6% CO2. Compound al has the following structure:
Following incubation, 30 μL of complete Nano-Glo HiBiT Lytic Detection Reagent (Nano-Glo HiBiT Lytic Buffer with 1:50 Nano-Glo HiBiT Lytic Substrate and 1:100 LgBiT Protein; Promega cat. no. N3040) was added. Cells were further incubated for 10 min at room temperature (RT). Luminescence units (LU) were read on an EnVision plate reader (Perkin Elmer, 0.1 sec per well). Percent IRAK4 remaining per sample was calculated as follows: […]
Using Graphpad Prism, % IRAK4 remaining values were plotted as a function of compound concentration. To determine DC50 and Dmax values, resulting curves were fit to the Prism curve-fitting equation “log (inhibitor) vs response-Variable slope (four parameters)” (reported best fit value IC50 used as DC50). Table 1 summarizes the biological data of Compounds of Examples 1-137 and 142-145 obtained from the assays described herein.

Row | SMILES | DC50 [nM] | Dmax [%]
1 | CC(C)Nc1cc(-c2ccc3cc(C#N)cnn23)ncc1-c1nnc(N2CCN(CC3CCN(c4ccc([C@@H]5CCC(=O)NC5=O)cn4)CC3)CC2)s1 (single isomer, unassigned) [Example 118] | 49 | 110
2 | CC(C)Nc1cc(-c2ccc3cc(C#N)cnn23)ncc1-c1nnc(N2CCN(CC3CCN(c4ccc(N5CCC(=O)NC5=O)cn4)CC3)CC2)s1 [Example 65, 7-(5-{5-[4-({1-[5-(2,4-dioxo-1,3-diazinan-1-yl)pyridin-2-yl]piperidin-4-yl}methyl)piperazin-1-yl]-1,3,4-thiadiazol-2-yl}-4-[(propan-2-yl)amino]pyridin-2-yl)pyrrolo[1,2-b]pyridazine-3-carbonitrile] | 43 | 110
3 | CC(C)Nc1cc(-c2ccc3cc(C#N)cnn23)ncc1-c1nnc(N2CCN(C(=O)[C@@H]3CCN(c4ccc([C@H]5CCC(=O)NC5=O)cn4)C3)CC2)s1 (racemic) [Example 20, 7-[5-(5-{4-[(3RS)-1-{5-[(3RS&)-2,6-dioxopiperidin-3-yl]pyridin-2-yl}pyrrolidine-3-carbonyl]piperazin-1-yl}-1,3,4-thiadiazol-2-yl)-4-[(propan-2-yl)amino]pyridin-2-yl]pyrrolo[1,2-b]pyridazine-3-carbonitrile] | 20 | 98
4 | N#Cc1cnn2c(-c3cc(NC4CCOCC4)c(-c4nnc(N5CCN(CC6CCN(c7ccc(N8CCC(=O)NC8=O)cc7)CC6)CC5)s4)cn3)ccc2c1 [Example 60, 7-(5-{5-[4-({1-[4-(2,4-dioxo-1,3-diazinan-1-yl)phenyl]piperidin-4-yl}methyl)piperazin-1-yl]-1,3,4-thiadiazol-2-yl}-4-[(oxan-4-yl)amino]pyridin-2-yl)pyrrolo[1,2-b]pyridazine-3-carbonitrile] | 16 | 86
5 | CC1(Nc2cc(-c3ccc4cc(C#N)cnn34)ncc2-c2nnc(N3CCN(CC4CCN(c5ccc(C6CCC(=O)NC6=O)cc5)CC4)CC3)s2)COC1 (racemic) [Example 76, rac-7-[5-(5-{4-[(1-{4-[(3R)-2,6-dioxopiperidin-3-yl]phenyl}piperidin-4-yl)methyl]piperazin-1-yl}-1,3,4-thiadiazol-2-yl)-4-[(3-methyloxetan-3-yl)amino]pyridin-2-yl]pyrrolo[1,2-b]pyridazine-3-carbonitrile] | 23 | 111
6 | N#Cc1cnn2c(-c3cc(Nc4cnoc4)c(-c4nnc(N5CC6CCC(C5)N6CC5CCN(c6ccc([C@@H]7CCC(=O)NC7=O)cn6)CC5)s4)cn3)ccc2c1 (single isomer, unassigned) [Example 136] | 25 | 113
7 | CNc1cc(-c2ccc3cc(C#N)cnn23)ncc1-c1nnc(N2CCN(CC3CCN(c4ccc([C@@H]5CCC(=O)NC5=O)cn4)CC3)CC2)s1 (single isomer, unassigned) [Example 42] | 16 | 115
8 | N#Cc1cnn2c(-c3cc(NC4CC4)c(-c4nnc(N5CC6CCC(C5)N6CC5CCN(c6ccc([C@H]7CCC(=O)NC7=O)cc6)CC5)s4)cn3)ccc2c1 (racemic) [Example 99, rac-7-[4-(cyclopropylamino)-5-(5-{8-[(1-{4-[(3R)-2,6-dioxopiperidin-3-yl]phenyl}piperidin-4-yl)methyl]-3,8-diazabicyclo[3.2.1]octan-3-yl}-1,3,4-thiadiazol-2-yl)pyridin-2-yl]pyrrolo[1,2-b]pyridazine-3-carbonitrile] | 56 | 73
9 | CCNc1cc(-c2ccc3cc(C#N)cnn23)ncc1-c1nnc(N2CC3CCC(C2)N3CC2CCN(c3ccc([C@@H]4CCC(=O)NC4=O)cc3)CC2)s1 (single isomer, unassigned) [Example 126] | 43 | 108
